Molecular target: T1, His6-PDK1 (aa 52-556) (Homo sapiens, UniProt O15530)
T1 construct: 15 μL His6-PDK1 (aa 52-556) 3.33 ng/well); host or cells: baculovirus-infected insect cells
T1 sequence (O15530 52-556): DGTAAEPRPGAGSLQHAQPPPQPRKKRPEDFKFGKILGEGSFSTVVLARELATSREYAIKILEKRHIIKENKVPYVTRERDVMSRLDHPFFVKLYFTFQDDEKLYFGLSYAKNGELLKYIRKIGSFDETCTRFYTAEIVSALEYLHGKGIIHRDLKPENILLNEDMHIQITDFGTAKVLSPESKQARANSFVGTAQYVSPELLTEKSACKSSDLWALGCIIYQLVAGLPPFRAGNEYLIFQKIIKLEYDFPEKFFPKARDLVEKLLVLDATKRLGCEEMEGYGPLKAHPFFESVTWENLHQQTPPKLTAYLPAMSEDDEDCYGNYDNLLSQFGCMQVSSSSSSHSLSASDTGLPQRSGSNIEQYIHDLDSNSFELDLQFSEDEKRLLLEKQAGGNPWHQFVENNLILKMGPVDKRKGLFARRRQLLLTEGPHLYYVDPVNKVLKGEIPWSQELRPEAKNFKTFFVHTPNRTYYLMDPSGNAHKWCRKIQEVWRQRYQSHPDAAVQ
Assay: PDK1 kinase assay III (with Tween 20)
Format: biochemical
Conditions: compound at 10 μM; PDK1 kinase assay III (values without asterisk); read-out: % CTL (residual activity of the enzyme relative to DMSO control)
In short: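 Started with ATP, incubated 90 min at ambient temperature, then stopped with phosphoric acid. Asterisked values come from assay II (24 h or 5 min incubation).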

| Structure (SMILES) | remaining activity at 10 µM [%] |
| --- | --- |
| CN(C)Cc1ccc(Nc2ncc3cc(/C=C/CNC(=O)c4cncn(Cc5ccc(F)c(F)c5)c4=O)ccc3n2)cc1 [IV-3, 1-(3,4-difluorobenzyl)-N-{(2E)-3-[2-({4-[(dimethylamino)methyl]phenyl}amino)-quinazolin-6-yl]prop-2-en-1-yl}-6-oxo-1,6-dihydropyrimidine-5-carboxamide] | 11.1 |
| Cc1c(C(=O)NC/C=C/c2ccc3nc(Nc4ccccc4)ncc3c2)c(=O)n(Cc2ccc(F)c(F)c2)n1C [IV-5, 2-(3,4-difluorobenzyl)-1,5-dimethyl-3-oxo-N-{(2E)-3-[2-(phenylamino)quinazolin-6-yl]prop-2-en-1-yl}-2,3-dihydro-1H-pyrazole-4-carboxamide] | 13.6 |
| COc1cc(/C=C/CNC(=O)c2cncn(Cc3ccc(F)c(F)c3)c2=O)cc2cnc(Nc3ccc(CN(C)C)cc3)nc12 [IV-18, 1-(3,4-difluorobenzyl)-N-{(2E)-3-[2-({4-[(dimethylamino)methyl]phenyl}amino)-8-methoxyquinazolin-6-yl]prop-2-en-1-yl}-6-oxo-1,6-dihydropyrimidine-5-carboxamide] | 15 |
| Cc1c(C(=O)NC/C=C/c2ccc3nc(Nc4ccc(CN(C)C)cc4)ncc3c2)c(=O)n(Cc2ccccc2)n1C [IV-19, 2-benzyl-N-{(2E)-3-[2-({4-[(dimethylamino)methyl]phenyl}amino)quinazolin-6-yl]prop-2-en-1-yl}-1,5-dimethyl-3-oxo-2,3-dihydro-1H-pyrazole-4-carboxamide] | 12.6 |
| Cc1c(C(=O)NC/C=C/c2ccc3nc(Nc4ccc(CN(C)C)cc4)ncc3c2)c(=O)n(Cc2cc(F)c(F)c(F)c2)n1C [IV-20, N-{(2E)-3-[2-({4-[(dimethylamino)methyl]phenyl}amino)quinazolin-6-yl]prop-2-en-1-yl}-1,5-dimethyl-3-oxo-2-(3,4,5-trifluorobenzyl)-2,3-dihydro-1H-pyrazole-4-carboxamide] | 14.3 |
| Cc1c(C(=O)NC/C=C/c2ccc3nc(Nc4ccc(CN(C)C)cc4)ncc3c2)c(=O)n(Cc2ccc(F)c(F)c2)n1C [IV-21, 2-(3,4-difluorobenzyl)-N-{(2E)-3-[2-({4-[(dimethylamino)methyl]phenyl}amino)-quinazolin-6-yl]prop-2-en-1-yl}-1,5-dimethyl-3-oxo-2,3-dihydro-1H-pyrazole-4-carboxamide] | 11.2 |
| CN(C)Cc1ccc(Nc2ncc3cc(/C=C/CNC(=O)c4cn(C)c(=O)n(Cc5ccc(F)c(F)c5)c4=O)ccc3n2)cc1 [IV-22, 3-(3,4-difluorobenzyl)-N-{(2E)-3-[2-({4-[(dimethylamino)methyl]phenyl}amino)-quinazolin-6-yl]prop-2-en-1-yl}-1-methyl-2,4-dioxo-1,2,3,4-tetrahydropyrimidine-5-carboxamide] | 19.7 |
| CN(C)Cc1ccc(Nc2ncc3cc(CCCNC(=O)c4cncn(Cc5ccc(F)c(F)c5)c4=O)ccc3n2)cc1 [IV-23, 1-(3,4-difluorobenzyl)-N-{3-[2-({4-[(dimethylamino)methyl]phenyl}amino)quinazolin-6-yl]propyl}-6-oxo-1,6-dihydropyrimidine-5-carboxamide] | 16.8 |
| O=C(NCc1ccc(Nc2ncnc3[nH]c(-c4ccccc4)cc23)cc1)c1cncn(Cc2ccc(F)c(F)c2)c1=O [IV-24, 1-(3,4-difluorobenzyl)-6-oxo-N-{4-[(6-phenyl-7H-pyrrolo[2,3-d]pyrimidin-4-yl)amino]benzyl}-1,6-dihydropyrimidine-5-carboxamide] | 15.7 |
| Cc1c(C(=O)NCc2ccc(Nc3ncnc4[nH]c(-c5ccccc5)cc34)cc2)c(=O)n(Cc2ccc(F)c(F)c2)n1C [IV-25, 2-(3,4-difluorobenzyl)-1,5-dimethyl-3-oxo-N-{4-[(6-phenyl-7H-pyrrolo[2,3-d]-pyrimidin-4-yl)amino]benzyl}-2,3-dihydro-1H-pyrazole-4-carboxamide] | 33.5 |

More lines, now with the values ahead:

| remaining activity at 10 µM [%] | Structure (SMILES) |
| --- | --- |
| 13.8 | CN(C)Cc1ccc(Nc2ncc3cc(C#CCNC(=O)c4cc(Cl)nn(Cc5ccc(F)c(F)c5)c4=O)ccc3n2)cc1 [III-37, 6-chloro-2(3,4-difluorobenzyl)-N-{3-[2-({4-[(dimethylamino)methyl]phenyl}-amino)quinazolin-6-yl]prop-2-yn-1-yl}-3-oxo-2,3-dihydropyridazine-4-carboxamide] |
| 13.2 | CN1CCC(Nc2ccc(Nc3ncc4cc(C#CCNC(=O)c5cc(Cl)nn(Cc6ccc(F)c(F)c6)c5=O)ccc4n3)cc2F)CC1 [III-38, 6-chloro-2(3,4-difluorobenzyl)-N-{3-[2-({3-fluoro-4-[(1-methylpiperidin-4-yl)-amino]phenyl}amino)quinazolin-6-yl]prop-2-yn-1-yl}-3-oxo-2,3-dihydropyridazine-4-carboxamide] |
| 19 | CCOC(=O)c1ccc(Nc2ncc3cc(C#CCNC(=O)c4cncn(Cc5ccc(F)c(F)c5)c4=O)ccc3n2)cc1 [III-39, ethyl-4-({6-[3-({[1-(3,4-difluorobenzyl)-6-oxo-1,6-dihydropyrimidin-5-yl]carbonyl}amino)prop-1-yn-1-yl]quinazolin-2-yl}amino)benzoate] |
| 13.5 | Cc1c(C(=O)NCC#Cc2ccc3nc(Nc4ccc(N(C)C5CCN(C)CC5)cc4)ncc3c2)c(=O)n(Cc2ccc(F)c(F)c2)n1C [III-40, 2-(3,4-difluorobenzyl)-1,5-dimethyl-N-{3-[2-({4-[methyl(1-methylpiperidin-4-yl)amino]phenyl}amino)quinazolin-6-yl]prop-2-yn-1-yl}-3-oxo-2,3-dihydro-1H-pyrazole-4-carboxamide] |
| 12.7 | CN1CCC(N(C)c2ccc(Nc3ncc4cc(C#CCNC(=O)c5cc(Cl)nn(Cc6ccc(F)c(F)c6)c5=O)ccc4n3)cc2)CC1 [III-41, 6-chloro-2(3,4-difluorobenzyl)-N-{3-[2-({4-[methyl(1-methylpiperidin-4-yl)amino]phenyl}amino)quinazolin-6-yl]prop-2-yn-1-yl}-3-oxo-2,3-dihydropyridazine-4-carboxamide] |
| 14.7 | Nc1ncc2cc(C#CCNC(=O)c3cncn(Cc4ccc(F)c(F)c4)c3=O)ccc2n1 [III-42, N-[3-(2-aminoquinazolin-6-yl)prop-2-yn-1-yl]-1-(3,4-difluorobenzyl)-6-oxo-1,6-dihydropyrimidine-5-carboxamide] |
| 20.3 | CNc1ncc2cc(C#CCNC(=O)c3cncn(Cc4ccc(F)c(F)c4)c3=O)ccc2n1 [III-43, 1-(3,4-difluorobenzyl)-N-{3-[2-(methylamino)quinazolin-6-yl]prop-2-yn-1-yl}-6-oxo-1,6-dihydropyrimidine-5-carboxamide] |
| 30.4 | N#Cc1ccc(Nc2ncc3cc(C#CCNC(=O)c4cncn(Cc5ccc(F)c(F)c5)c4=O)ccc3n2)cc1 [III-44, N-(3-{2-[(4-cyanophenyl)amino]quinazolin-6-yl}prop-2-yn-1-yl)-1-(3,4-difluorobenzyl)-6-oxo-1,6-dihydropyrimidine-5-carboxamide] |
| 19.8 | Cc1c(C(=O)NCC#Cc2ccc3nc(Nc4ccc(C#N)cc4)ncc3c2)c(=O)n(Cc2ccc(F)c(F)c2)n1C [III-45, N-(3-{2-[(4-cyanophenyl)amino]quinazolin-6-yl}prop-2-yn-1-yl)-2-(3,4-difluorobenzyl)-1,5-dimethyl-3-oxo-2,3-dihydro-1H-pyrazole-4-carboxamide] |
| 21 | COC(=O)c1ccc(Nc2ncc3cc(C#CCNC(=O)c4c(C)n(C)n(Cc5ccc(F)c(F)c5)c4=O)ccc3n2)cc1 [III-46, methyl-4-({6-[3-({[2-(3,4-difluorobenzyl)-1,5-dimethyl-3-oxo-2,3-dihydro-1H-pyrazol-4-yl]carbonyl}amino)prop-1-yn-1-yl]quinazolin-2-yl}amino)benzoate] |
| 13.3 | Cc1c(C(=O)NCC#Cc2ccc3nc(Nc4ccc(C(=O)O)cc4)ncc3c2)c(=O)n(Cc2ccc(F)c(F)c2)n1C [III-47] |
| 18.3 | CNc1ncc2cc(/C=C/CNC(=O)c3cncn(Cc4ccc(F)c(F)c4)c3=O)cc(OCCN)c2n1 [III-59] |
| 14.2 | NCCOc1cc(/C=C/CNC(=O)c2cncn(Cc3ccc(F)c(F)c3)c2=O)cc2cnc(Nc3ccccc3)nc12 [III-63] |
| 13 | Cc1c(C(=O)NCC#Cc2cc(OCCCN)c3nc(Nc4ccc(N5CCOCC5)cc4)ncc3c2)c(=O)n(Cc2ccc(F)c(F)c2)n1C [III-74] |
| 11.8 | Cc1c(C(=O)NCC#Cc2cc(OC3CCNC3)c3nc(Nc4ccc(N5CCOCC5)cc4)ncc3c2)c(=O)n(Cc2ccc(F)c(F)c2)n1C (centres unmarked) [III-76] |
| 20 | Cc1cccc(Nc2ncc3cc(C#CCNC(=O)c4c(C)n(C)n(Cc5ccc(F)c(F)c5)c4=O)ccc3n2)c1 [III-79] |
| 13.3 | Cc1c(C(=O)NCC#Cc2ccc3nc(Nc4ccc(C(=O)N(C)CCCN(C)C)cc4)ncc3c2)c(=O)n(Cc2ccc(F)c(F)c2)n1C [III-90] |
| 15.8 | COCCCN(C)C(=O)c1ccc(Nc2ncc3cc(C#CCNC(=O)c4cncn(Cc5ccc(F)c(F)c5)c4=O)ccc3n2)cc1 [III-104] |
| 13.5 | O=C(NCCO)c1ccc(Nc2ncc3cc(C#CCNC(=O)c4cncn(Cc5ccc(F)c(F)c5)c4=O)ccc3n2)cc1 [III-115] |

Source: patent US20110313156A1 (BOEHRINGER INGELHEIM INTERNATIONAL GMBH, priority 2008, published 2011)
